ChEMBL document CHEMBL4610126, “EEDi-5285: An Exceptionally Potent, Efficacious, and Orally Active Small-Molecule Inhibitor of Embryonic Ectoderm Development” (J Med Chem, 2020)

Columns and labels:
KARPAS-422 [1] = assay: Growth inhibition of human KARPAS422 cells incubated for 7 days by WST8 assay; details: KARPAS-422, 168 h
Polycomb protein EED = Polycomb protein EED (Homo sapiens, UniProt O75530)
[2] = Plasma concentration in mouse at 25 mg/kg, po after 3 hrs by LC-MS/MS analysis; type: ADME, organism-based
Pfeiffer [3] = assay: Growth inhibition of human Pfeiffer cells incubated for 7 days by WST8 assay; type: functional, cell-based; details: 168 h
[4] = Plasma concentration in mouse at 25 mg/kg, po after 6 hrs by LC-MS/MS analysis; type: ADME, organism-based
[5] = Plasma concentration in mouse at 25 mg/kg, po after 1 hr by LC-MS/MS analysis; type: ADME, organism-based
KARPAS-422 [6] = assay: Antitumor activity against human KARPAS422 cells xenografted in mouse assessed as inhibition of tumor growth at 100 mg/kg, po dosed twice daily for 36 days; type: functional; details: KARPAS-422, po, 864 h, read-out: TGI
KARPAS-422 [7] = assay: Antitumor activity against human KARPAS422 cells xenografted in SCID mouse assessed as induction of tumor regression at 50 mg/kg, po dosed daily for 28 days relative to control; type: functional
[8] = Toxicity in SCID mouse xenografted with human KARPAS422 cells assessed as induction of body weight loss at 50 to 100 mg/kg, po dosed daily for 28 days; type: organism-based, KARPAS-422; details: in vivo, 672 h
KARPAS-422 [9] = assay: Antitumor activity against human KARPAS422 cells xenografted in SCID mouse assessed as induction of tumor regression at 100 mg/kg, po dosed daily for 28 days relative to control; type: functional
[10] = Volume of distribution at steady state in mouse at 2 mg/kg, iv by LC-MS/MS analysis; type: ADME, organism-based; details: in vivo, read-out: Vdss
[11] = Cmax in mouse at 10 mg/kg, po by LC-MS/MS analysis; type: ADME, organism-based; set-up: dose 10 mg/kg, route oral; details: in vivo
[12] = AUC (0 to t) in mouse at 2 mg/kg, iv by LC-MS/MS analysis; type: ADME, organism-based; details: in vivo
[13] = AUC (0 to t) in mouse at 10 mg/kg, po by LC-MS/MS analysis; type: ADME, organism-based; details: in vivo
[14] = Plasma clearance in mouse at 2 mg/kg, iv by LC-MS/MS analysis; type: ADME, organism-based
Pfeiffer [15] = assay: Growth inhibition of human Pfeiffer cells incubated for 10 days by WST8 assay; type: functional, cell-based; details: 240 h
[16] = Terminal half life in mouse at 10 mg/kg, po by LC-MS/MS analysis; type: ADME, organism-based; details: in vivo, read-out: beta t1/2 (converted)

Sequence of Polycomb protein EED (O75530 whole entry): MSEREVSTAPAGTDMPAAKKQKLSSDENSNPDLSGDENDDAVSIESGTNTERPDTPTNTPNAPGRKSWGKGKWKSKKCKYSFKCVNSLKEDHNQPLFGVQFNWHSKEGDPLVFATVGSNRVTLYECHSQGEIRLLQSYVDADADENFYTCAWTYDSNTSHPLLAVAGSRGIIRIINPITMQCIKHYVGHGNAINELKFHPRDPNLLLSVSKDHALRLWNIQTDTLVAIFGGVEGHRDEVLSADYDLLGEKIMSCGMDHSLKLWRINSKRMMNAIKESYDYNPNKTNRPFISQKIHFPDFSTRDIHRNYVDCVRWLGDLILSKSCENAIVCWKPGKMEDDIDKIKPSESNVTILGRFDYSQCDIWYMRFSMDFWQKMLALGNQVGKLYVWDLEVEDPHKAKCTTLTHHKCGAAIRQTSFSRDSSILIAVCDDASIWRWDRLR

| Structure (SMILES) | IC50 (KARPAS-422 [1]) | IC50 (Polycomb protein EED) | concentration at 3 h [2] | IC50 (Pfeiffer [3]) | concentration at 6 h [4] | concentration at 1 h [5] | other results |
| --- | --- | --- | --- | --- | --- | --- | --- |
| CS(=O)(=O)c1ncn2c(NCc3c(F)ccc4c3CCO4)ncc(-c3ccccc3)c12 | 2.2 nM | – | – | – | – | – | – |
| CS(=O)(=O)c1ncn2c(NCc3c(F)ccc4c3CCO4)ncc(C3CCN(S(C)(=O)=O)CC3)c12 | 15.3 nM | 7.9 nM | – | – | – | – | – |
| CNC(=O)c1ncn2c(NCc3c(F)ccc4c3CCO4)ncc(-c3ccccc3)c12 | 60 nM | – | – | – | – | – | – |
| Fc1ccc2c(c1CNc1ncc(-c3ccccc3)c3c(C(F)(F)F)ncn13)CCO2 | 120 nM | – | – | – | – | – | – |
| CCOC(=O)c1ncn2c(NCc3ccc(OC)cc3F)ncc(-c3ccccc3)c12 | 4300 nM | – | – | – | – | – | – |
| CC(=O)N1CCC(c2cnc(NCc3c(F)ccc4c3CCO4)n3cnc(S(C)(=O)=O)c23)CC1 | 6.5 nM | 2.8 nM | – | – | – | – | – |
| CP(C)(=O)c1ncn2c(NCc3c(F)ccc4c3CCO4)ncc(-c3ccccc3)c12 | 8.1 nM | – | – | – | – | – | – |
| CS(=O)(=O)c1ccc(-c2cnc(NCc3c(F)ccc4c3CCO4)n3cnc(S(C)(=O)=O)c23)cn1 | 2.9 nM | – | 36 ng/mL | 0.5 nM | 41 ng/mL | 351 ng/mL | – |
| CCOC(=O)c1ncn2c(NCc3ccco3)ncc(-c3ccccc3)c12 | 1000 nM | – | – | – | – | – | – |
| CS(=O)(=O)c1ncn2c(NCc3c(F)ccc4c3CCO4)ncc(-c3ccc(C(F)(F)F)nc3)c12 | 1.7 nM | 0.3 nM | 189 ng/mL | 0.03 nM | 139 ng/mL | 468 ng/mL | – |
| CCOC(=O)c1ncn2c(NCc3ccccc3)ncc(-c3ccccc3)c12 | 3000 nM | – | – | – | – | – | – |
| CS(=O)(=O)c1ncn2c(NCc3c(F)ccc4c3CCO4)ncc(-c3ccc(C(F)F)nc3)c12 | 2.4 nM | 0.2 nM | 18 ng/mL | 0.02 nM | < 10 ng/mL | 242 ng/mL | – |
| CS(=O)(=O)c1ccc(-c2cnc(NCc3c(F)ccc4c3CCO4)n3cnc(S(C)(=O)=O)c23)cc1 | 1.4 nM | – | 171 ng/mL | 0.02 nM | 109 ng/mL | 598 ng/mL | – |
| Cc1ncccc1-c1cnc(NCc2c(F)ccc3c2CCO3)n2cnc(S(C)(=O)=O)c12 | 3.6 nM | – | 194 ng/mL | 0.08 nM | 91 ng/mL | 488 ng/mL | – |
| CCOC(=O)c1ncn2c(NCc3cccc4c3CCO4)ncc(-c3ccccc3)c12 | 210 nM | – | – | – | – | – | – |
| CS(=O)(=O)c1ccc(-c2cnc(NCc3ccco3)n3cnnc23)cc1 | 180 nM | 17.6 nM | – | – | – | – | inhibition in vivo at 100 mg/kg (KARPAS-422 [6]): 85% |
| CNC(=O)c1ncn2c(NCc3ccco3)ncc(-c3ccccc3)c12 | 2400 nM | – | – | – | – | – | – |

| Structure (SMILES) | IC50 (KARPAS-422 [1]) | IC50 (Polycomb protein EED) | concentration at 3 h [2] | IC50 (Pfeiffer [3]) | concentration at 6 h [4] | concentration at 1 h [5] | other results |
| --- | --- | --- | --- | --- | --- | --- | --- |
| CCOC(=O)c1ncn2c(NCc3cc(OC)ccc3F)ncc(-c3ccccc3)c12 | 2700 nM | – | – | – | – | – | – |
| CS(=O)(=O)c1ncn2c(NCc3c(F)ccc4c3CCO4)ncc(-c3ccc(C4CC4)nc3)c12 | 0.5 nM | 0.2 nM | 608 ng/mL | 0.02 nM | 452 ng/mL | 1100 ng/mL | Activity (KARPAS-422 [7]): 100%; Activity [8]: Non-Toxic; Activity (KARPAS-422 [9]): 100%; Vd [10]: 1.4 L/kg; Cmax [11]: 1800 ng/mL; AUC(0-t) [12]: 1700 ng·h/mL; AUC(0-t) [13]: 6000 ng·h/mL; clearance [14]: 20 mL/min/kg |
| Cc1ccc(-c2cnc(NCc3c(F)ccc4c3CCO4)n3cnc(S(C)(=O)=O)c23)cn1 | 1.4 nM | – | 94 ng/mL | 0.03 nM | 29 ng/mL | 340 ng/mL | – |
| CCOC(=O)c1ncn2c(NCc3c(F)cccc3OC)ncc(-c3ccccc3)c12 | 300 nM | 50 nM | – | – | – | – | – |
| CS(=O)(=O)c1ncn2c(NCc3c(F)ccc4c3CCO4)ncc(C3CCOCC3)c12 | 52 nM | 12 nM | – | – | – | – | – |
| CS(=O)(=O)c1ncn2c(NCc3c(F)ccc4c3CCO4)ncc(C3CCS(=O)(=O)CC3)c12 | 29 nM | 7.8 nM | – | – | – | – | – |
| CCOC(=O)c1ncn2c(NCc3cccc4c3OCO4)ncc(-c3ccccc3)c12 | 300 nM | 40 nM | – | – | – | – | – |
| Cc1nc(C(F)(F)F)ccc1-c1cnc(NCc2c(F)ccc3c2CCO3)n2cnc(S(C)(=O)=O)c12 | 1.7 nM | 0.4 nM | 794 ng/mL | 0.05 nM | 415 ng/mL | 896 ng/mL | – |
| CCN1CCC(c2cnc(NCc3c(F)ccc4c3CCO4)n3cnc(S(C)(=O)=O)c23)CC1 | 126 nM | 23 nM | – | – | – | – | – |
| CS(=O)(=O)c1ncn2c(NCc3c(F)ccc4c3CCO4)ncc(-c3ccc(F)cc3)c12 | 5.2 nM | 0.4 nM | < 10 ng/mL | 0.12 nM | < 10 ng/mL | 43 ng/mL | – |
| CCOC(=O)c1ncn2c(NCc3cccc4c3OCC4)ncc(-c3ccccc3)c12 | 6300 nM | – | – | – | – | – | – |
| Cc1cc(S(C)(=O)=O)ccc1-c1cnc(NCc2c(F)ccc3c2CCO3)n2cnc(S(C)(=O)=O)c12 | 1.6 nM | 0.9 nM | 279 ng/mL | 0.02 nM | 98 ng/mL | 591 ng/mL | – |
| CN(C)[C@H]1CN(C2CCc3cccc(F)c32)C[C@@H]1c1ccc(N2CCN(S(C)(=O)=O)CC2)cc1 (some centres undefined) | – | – | – | – | – | – | IC50 (Pfeiffer [15]): 69 nM |
| Cc1ccc(-c2cnc(NCc3c(F)ccc4c3CCO4)n3cnc(S(C)(=O)=O)c23)c(C)n1 | – | 0.5 nM | 754 ng/mL | – | 485 ng/mL | 2480 ng/mL | Activity (KARPAS-422 [7]): 100%; Activity [8]: Non-Toxic; Activity (KARPAS-422 [9]): 100%; Vd [10]: 1.6 L/kg; Cmax [11]: 1300 ng/mL; AUC(0-t) [12]: 800 ng·h/mL; half-life [16]: 126 min; AUC(0-t) [13]: 2600 ng·h/mL; clearance [14]: 40 mL/min/kg |
| CS(=O)(=O)c1ncn2c(NCc3c(F)ccc4c3CCO4)ncc(C3CCN(S(=O)(=O)C4CC4)CC3)c12 | 8.2 nM | 3.1 nM | – | – | – | – | – |
| Cn1cc(-c2cnc(NCc3c(F)ccc4c3CCO4)n3cnc(S(C)(=O)=O)c23)cn1 | 3.1 nM | 0.5 nM | 50 ng/mL | 0.27 nM | 56 ng/mL | 468 ng/mL | – |
